Measured values taken from patent publication US11584727B2, “2-thioxothiazolidin-4-one derivatives active as transthyretin ligands and uses thereof” (BSIM Therapeutics, S.A., priority 2014, dated 2023).

Legend:
[1] = biological target: T1, wild type transthyretin (WT-TTR) (Homo sapiens, UniProt P02766); assay: WT-TTR amyloid fibril formation assay (turbidimetry, acid-induced); format: biochemical; settings: for Fibril Formation (%): WT-TTR 3.6 μM, 1:1 TTR-compound stoichiometry, 37° C., normalized to no-compound control (100%)
T1 construct: made in house; host or cells: E. coli BL21 (DE3), pET23a plasmid

[2] = HepG2 cell viability, resazurin reduction assay; format: cell-based; settings: human, HepG2 hepatoma cells, approximately 72 hours incubation, read-out: inhibitory dose (ID50), cell viability
Description: Cell viability of HepG2 hepatoma cells was quantified in order to assess the toxicity of the compounds at increasing concentrations. The used assay is described in detail in the “Experimental Evaluation of Cytotoxicity of Compounds using Cell-based Assays” section in “Materials and Methods”. This is a relevant assessment not just to discard potential concerns of liver damage (which is a problem reported for many drugs) but also because of the long-term nature of the treatments that patients suffering from TTR-mediated amyloidoses need to undertake.
Adherent human hepatoma cells HepG2 were cultured in DMEM (Dulbecco's Modified Eagle's Medium) with 10% fetal bovine serum (FBS), 100 U/mL penicillin, […] streptomycin, and 1 mM sodium pyruvate. The cells were grown in 75 cm^2 culture flasks at 37° C., in an atmosphere of 5% CO2, and subcultured twice a week using a trypsin-EDTA solution.
Upon 3 to 4 days of growth and reaching approximately 90% confluence, HepG2 cells were plated in 96-well microplates with cell density of 12×10^3 cells/well and in a volume of 100 μL per well.
The compounds are dissolved in DMSO and subsequently diluted in DMEM (in 9 intermediate […] concentrations). After adhesion of HepG2 cells to the microplates, […] 100 μL of each solution of intermediate compound concentration were added to each well (in quadruplicate). Positive controls were done with 10 wells containing only cells; solvent controls resulted from the analysis of the three highest DMSO concentrations tested and were carried out in triplicate.
After addition of the compounds to the cells, the microplates were incubated for approximately 72 hours at 37° C. in an atmosphere of 5% CO2 until the cell viability assay was performed.
The cell viability of HepG2 cells in the presence of test compounds was assessed by the resazurin reduction assay. Resazurin is a redox indicator that is converted into resorufin through reduction reactions of metabolically active cells. In the oxidized form it presents a purplish blue color, while the reduced form presents a purple-pink color.
A stock solution of 0.01% resazurin in PBS is diluted 1:10 in incomplete RPMI 1640 cell medium (without addition of antibiotics and FBS). After washing the cells with 200 μL PBS containing Ca^2+ and Mg^2+, 200 μL of resazurin 0.001% are added to the wells. Control runs with incomplete RPMI 1640 medium only and (without cells) are done in triplicate. […]
To quantify the reduction of resazurin to resorufin, microplate absorbance readings were taken at two wavelengths, 540 nm (reduced form) and 630 nm (oxidized form), in a Biotek spectrophotometer microplate reader. The percentage of viable cells at each compound concentration is determined using the formula: […]

| Compound | inhibition of fibril formation ([1]; 1:2 compound-protein stoichiometry (0.5×), TTR 3.6 μM) | inhibitory activity against TTR amyloid fibril formation compared with reference compounds (in words) ([1]; TTR 3.6 μM, pH 4.4, 72 hours) | Fibril Formation (%) ([1]; pH 4.4, 72 hours) | IC50 ([1]; WT-TTR fixed at 3.6 μM, ten compound concentrations, pH 4.4, 72 hours) [µM] | IC50 at 72 h [2] [µM] |
| --- | --- | --- | --- | --- | --- |
| COc1cc(/C=C2\SC(=S)N(CC(=O)O)C2=O)cc(Cl)c1O [AT50-A00 (Z), (Z)-3-hydroxycarbonylmethyl-5-(3′-chloro-4′-hydroxy-5′-methoxyphenylmethylidene)-2-thioxothiazolidin-4-one] | above 70% | superior to that of reference compounds Tafamidis | 28 | 1.77 ± 0.24 | > 400 |
| O=C(O)c1ccc2nc(-c3cc(Cl)cc(Cl)c3)oc2c1 [Tafamidis, reference compound] | – | – | 43 | – | ~250 |
